Consider 24 molecules from patent US20220315632A1, “COMBINATION OF DIETARY PEPTIDES” (DIET4LIFE APS, priority 2019, published 2022).

Ends that are not written are not given here. Peptide text beside a SMILES is read from it.

One series deals with murine intestinal cells (Mus musculus, UniProt O88319). The series is described as follows: Ca2+ flux / calcium response assay (cell signaling activity) in murine intestinal cells. To be noted: FIG. 2, truncation. The series is classed as cell-based.
Chain of murine intestinal cells (O88319 whole entry, the tested form may be a part): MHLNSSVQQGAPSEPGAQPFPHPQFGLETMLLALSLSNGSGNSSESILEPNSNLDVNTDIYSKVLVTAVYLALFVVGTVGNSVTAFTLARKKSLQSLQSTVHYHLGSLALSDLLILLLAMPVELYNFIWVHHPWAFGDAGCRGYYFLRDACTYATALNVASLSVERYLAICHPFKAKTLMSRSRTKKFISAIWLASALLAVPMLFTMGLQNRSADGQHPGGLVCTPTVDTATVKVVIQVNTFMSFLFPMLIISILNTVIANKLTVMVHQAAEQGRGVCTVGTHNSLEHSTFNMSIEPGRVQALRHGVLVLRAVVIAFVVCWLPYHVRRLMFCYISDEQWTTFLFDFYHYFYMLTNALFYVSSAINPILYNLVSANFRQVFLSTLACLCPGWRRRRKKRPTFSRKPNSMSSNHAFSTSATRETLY
Text: Murine intestinal enteroendocrine L-cell lines that expresses the proglucagon gene and secretes GLP-1 in vitro were used.
With `CC[C@H](C)[C@H](NC(=O)[C@H](Cc1ccc(O)cc1)NC(=O)[C@@H]1CCCN1)C(=O)N[C@@H](CC(C)C)C(=O)O` [PYIL] (H-PYIL-OH), the “activity compared with the full sequence ASDKPYIL in mIC” value is recorded as “two orders of magnitude lower activity”.

In a further series the test system is Swiss-Webster females. Kind of series: Chronic feed intake, 3-week daily administration. It is filed as in vivo. To be noted: FIG. 18; liraglutide 3 μg/mouse s.c., DC7-2 1 mg/mouse i.p., sitagliptin 0.025 mg/mouse. An excerpt:
FIG. 18. […] Mice had free access to water and feed in this 3-week study (n=14-18 per group). Significance (P<0.05) is shown as * compared to the corresponding vehicle control.
The effect of DC7-2 alone or in combination with liraglutide on feed intake and body weight was investigated in outbred Swiss-Webster females.
For the molecule `N[C@@H](CC(=O)N1CCn2c(nnc2C(F)(F)F)C1)Cc1cc(F)c(F)cc1F` [sitagliptin], the “accumulative feed intake after repeated daily administration” value is “reduces feed intake”.

A further series concerns mice.
Assay: not given
The conditions noted are these: 1 week of daily exposure in mice; cited from earlier work.
In the case of exendin-4, the “desensitization of glucose homeostasis” value is listed as “a tendency but not significant difference”.

The next series concerns pepsin. The series is described as follows: Pepsin degradation (proteolytic digest of meat). The conditions noted are these: present in proteolytic digests. The method, then: Minced meat is diluted 1-10 times with distilled water, adjusted to pH 1-3 with hydrochloric acid, and incubated with 0.01-10% pepsin (w/w) at 4-40° C. for ½-12 h with adequate mixing. Insoluble material is removed by centrifugation at 100-1000 xg for 3-30 min, and supernatant is neutralized with NaOH. Using sterile conditions, low molecular weight peptides in supernatant are recovered by tangential ultrafiltration at 4-40° C. for ½-12 h, and excess water is evaporated at 25-50° C. for up to 12 h. The concentrated dialysate is tested for bioactivity with cells and used for further purification by HPLC.
Consider ASDKPYIL [Peptide ID 36036, A SDKPYIL], for which the pepsin degradation entry is given as “resistant to pepsin degradation”.

Tested on in the next series: not listed separately
Kind of series: Stability of peptides in serum (Fetal Bovine Serum), activity remaining. It is filed as in vitro ADME. To be noted: octapeptides X-SDKPYIL; fraction of peptide activity left after 10 min of incubation in serum at 37° C. The method, then: All peptides were incubated at 10^−5 M with Fetal Bovine Serum (FBS; final concentration of 66.7%) (Sigma Aldrich, Denmark) at 37° C. for 3 hours. The peptide degradation was terminated using 1 M phosphoric acid (final 0.4 M, pH ˜1.2) and neutralized to pH 7.2-7.4 with NaOH before testing activity in intestinal cells. As for small intestine homogenates, a zero degradation control was included for each peptide.
DC7-2, NT, DKPYIL and NT-(8-13) (final concentration of 10^−6 M) were incubated either with FBS or with 270× diluted intestinal homogenate at 37° C. for various time points with shaking. Degradation was stopped with 1 M phosphoric acid and the samples were subsequently neutralized and immediately tested with intestinal cells as described above. Control for zero degradation was included for each peptide as above.
The 20 hexapeptides with systematic N-terminal substitutions (X-KPYIL) (Schafer-N, Denmark) and NT (8-13) was incubated at 10^−6 M in either FBS for 10 minutes or with 270× diluted intestinal homogenate for 30 minutes at 37° C. with shaking. The degradation was stopped with 1 M phosphoric acid. Peptide solutions were neutralized with NaOH (pH 7.2-7.4), diluted and immediately tested for bioactivity using murine intestinal cells. Determination of EC50 for stimulation of cells allowed calculation of recovered peptide. Systematic substitutions of N-terminal amino acids in octapeptide […] and their importance for activity and stability. Sequence, activity and stability of DC7-2 is italicized.
As to LSDKPYIL [compound 36045], the “Stability in serum (activity remaining)” value is 0.0917 fraction.

Consider ESDKPYIL [compound 36039], for which the “Stability in serum (activity remaining)” value was found to be 0.0964 fraction.

Take HSDKPYIL [compound 36042]: the “Stability in serum (activity remaining)” value was found to be 0.0980 fraction.

As for MSDKPYIL [compound 36046], the “Stability in serum (activity remaining)” value is listed as 0.0762 fraction.

Take ASDKPYIL [compound 36036]: the “Stability in serum (activity remaining)” value came to 0.0988 fraction.

For the molecule RSDKPYIL [compound 36050], the “Stability in serum (activity remaining)” value amounted to 0.0735 fraction.

As to GSDKPYIL [compound 36041], the “Stability in serum (activity remaining)” value was determined as 0.0912 fraction.

In the case of DSDKPYIL [compound 36038], the “Stability in serum (activity remaining)” value worked out at 0.0947 fraction.

For the molecule PSDKPYIL [compound 36048], the “Stability in serum (activity remaining)” value stood at 0.0772 fraction.

In the case of WSDKPYIL [compound 36054], the “Stability in serum (activity remaining)” value worked out at 0.0426 fraction.

As to CSDKPYIL [compound 36037], the “Stability in serum (activity remaining)” value was found to be 0.0963 fraction.

In the case of ISDKPYIL [compound 36043], the “Stability in serum (activity remaining)” value worked out at 0.0956 fraction.

For the molecule TSDKPYIL [compound 36052], the “Stability in serum (activity remaining)” value is reported as 0.0535 fraction.

For the molecule QSDKPYIL [compound 36049], the “Stability in serum (activity remaining)” value is 0.0742 fraction.

Consider FSDKPYIL [compound 36040], for which the “Stability in serum (activity remaining)” value is listed as 0.0944 fraction.

With SSDKPYIL [compound 36051], the “Stability in serum (activity remaining)” value is 0.0609 fraction.

For KSDKPYIL [compound 36044], the “Stability in serum (activity remaining)” value was found to be 0.0527 fraction.

With YSDKPYIL [compound 36055], the “Stability in serum (activity remaining)” value was found to be 0.0491 fraction.

Take VSDKPYIL [compound 36053]: the “Stability in serum (activity remaining)” value is listed as 0.0488 fraction.

On to NSDKPYIL [compound 36047], for which the “Stability in serum (activity remaining)” value is recorded as 0.0872 fraction.

Another series deals with mice.
Assay: not given
The conditions noted are these: mouse, in vivo, ip, 128 mg/kg. The method, then: Liraglutide reached its maximum inhibition of gastric emptying at doses higher than 3 mg/kg retaining approximately 30% of the phenol red marker solution in the stomach. […] A combination test was designed in which DC7-2 was given at EC50 (3 mg/kg) together with different doses of liraglutide (same as used in dose-response test) (FIG. 17 B). […] This was further supported by the different maximum values observed for liraglutide and DC7-2 alone, respectively.
For the molecule ASDKPYIL [Peptide ID 36036, A SDKPYIL], the “inhibition of gastric emptying” value is given as approximately 50%.

The next series concerns human (hIC) intestinal cells. The series is described as follows: Ca2+ flux / calcium response assay in human intestinal cells (hIC). It is filed as cell-based. To be noted: FIG. 2, truncation. The method, then:
Elevation of intracellular calcium level was measured using the fluorescent calcium chelating dye Fluo-4 AM (ThermoFischer Scientific, Denmark). Briefly, cells were grown as a monolayer in 96-well tissue culture plates (Sarstedt, Germany) to near confluence in appropriate growth medium as described in the cell culture section. Prior to the start of the assay, the cells were incubated with 1.5 μM Fluo-4 AM in complete culture media mixed 1:1 with Hank's balanced salt solution (HBSS, ThermoFischer Scientific, Denmark) containing 25 mM HEPES (pH 7.4), 1% BSA (Sigma-Aldrich, Denmark), 2% ink (Soluro GMBH, Germany), 0.01% Pluronic F-127 (Sigma-Aldrich, Denmark) and 1 mM Probenecide (Sigma-Aldrich) for 60 minutes at 37° C.
All test compounds were dissolved in water, and then diluted in 1×HBSS containing 25 mM HEPES (pH 7.4), 1% BSA and 2% ink. Without any removal of excess Fluo-4 AM, test compounds were added directly into the wells and fluorescence were measured using instrument settings for excitation at 488 nm and emission at 525 nm in a microtiter plate reader (SpectraMax M5, Molecular Devices, USA).
Human intestinal cell lines were cultured in McCoy's modified 5A medium supplemented with 10% fetal bovine serum and 1% penicillin/streptomycin/neomycin at 37° C. and 5% CO2 in a humidified incubator.
For the molecule `CC[C@H](C)[C@H](NC(=O)[C@H](Cc1ccc(O)cc1)NC(=O)[C@@H]1CCCN1)C(=O)N[C@@H](CC(C)C)C(=O)O` [PYIL] (H-PYIL-OH), the “activity in hIC” value is “no activity”.
